For one assay, the target named is T1, 11 β-HSD type 2 (Rattus norvegicus, UniProt P50233).
T1 construct: Both the kidneys and livers were homogenised on ice in PBS- sucrose buffer; tissue Harlan Olac, Bicester, Oxon, UK (rats); host or cells: rat kidney homogenate supernatant (Wistar rat)
T1 sequence (P50233 1-400): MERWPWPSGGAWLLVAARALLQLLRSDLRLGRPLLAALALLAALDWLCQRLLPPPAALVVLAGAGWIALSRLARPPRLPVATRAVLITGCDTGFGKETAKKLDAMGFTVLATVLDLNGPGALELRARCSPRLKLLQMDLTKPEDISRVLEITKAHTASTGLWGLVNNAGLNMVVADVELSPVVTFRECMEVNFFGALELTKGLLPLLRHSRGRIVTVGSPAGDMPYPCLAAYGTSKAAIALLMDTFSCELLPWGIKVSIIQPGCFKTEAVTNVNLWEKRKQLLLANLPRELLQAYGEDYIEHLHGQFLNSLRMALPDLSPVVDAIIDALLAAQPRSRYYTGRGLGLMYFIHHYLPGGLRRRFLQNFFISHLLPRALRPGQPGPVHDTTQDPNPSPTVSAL
The assay is described as follows: biochemical. The note with it: for inhibition at 10 µM: read-out: % […]→E ± SD, inhibitor 10 μM, rat kidney cytosol 150 μL, 60 min, 37° C., cortisol (F) to cortisone (E), vs control without inhibitor, means n=2, read-out: % INHIBITION F→E ± SD. As to the method:
Enzymes—Rat livers and rat kidneys were obtained from normal Wistar rats (Harlan Olac, Bicester, Oxon,UK). Both the kidneys and livers were homogenised on ice in PBS- sucrose buffer (1 g/10 ml) using an Ultra-Turrax. After the livers and kidneys were homogenised the homogenate was centrifuged for five minutes at 4000 rpm. The supernatant obtained was removed and stored in glass vials at −20° C. The amount of protein per μl of rat liver and kidney cytosol was determined using the Bradford method.
The same procedure was used for the 11 β-HSD type 2 assay, the conversion F to E, to determine the amount of rat kidney to be used and the incubation time.
In these assays the influence of different inhibitors on the 11 β-HSD activity both in reductive (type 1) and oxidative (type 2) directions were assessed. In the reductive direction E is the substrate and F the product and visa versa in the case of oxidation. The method described here is for the oxidative direction.
The substrate solution contained about 50,000 cpm/ml ^3H—F in PBS-sucrose and 0.5 pM F. 1 ml of the substrate solution was added to each tube, the inhibitors were also added, at a 10 μM concentration, to each tube except to the “control” and “blank” tubes. 150 μL was added to all tubes except to the blanks, this was done to correct for the amount of ^3H[…]. The tubes were incubated for 60 minutes in a mechanically shaken water bath at 37° C. […] After incubation 50 μL of recovery was added to correct for the losses made in the next steps, containing 5000 cpm/50 μL of ^14C-E and 50 μg/50 μL of unlabelled E (to visualise the spot on the TLC-plate). The aqueous mixture was then extracted with 4 ml of ether (2×30 sec cycle, vortex mix). After freezing the aqueous phase, the ether (upper) layer was decanted into smaller tubes and evaporated at 45° C. until completely dry. The residue was then re-dissolved in 6 drops of ether and transferred to a TLC-plate. The TLC-plate was developed in chloroform:methanol (9:1 v/v) solvent system, the TLC-plate ran for about 90 minutes until the solvent front had moved about 18 cm. The position of the product E was visualised under UV-light and cut out from the TLC-plate and put into scintillation vials. Radioactivity was eluted over 5 minutes with 0.5 ml methanol. 0.5 ml of PBS- sucrose and 10 ml of Ecoscint were then added and vortex mixed before counting in the scintillation counter. Before counting the samples, two total activity vials were prepared. These contained 0.5 ml of the substrate solution, 50 μL of the recovery, 0.5 ml of methanol and 10 ml of Ecoscint. These two total activity vials were needed to determine the amount of ^14C-E and ^3H—F added in the beginning to make the calculations.
To look at the percentage of inhibition four different concentrations, 1, 5, 10 and 20 μM, were used. The method for both the rat liver, type 1 the reductive, and rat kidney, type 2 the oxidative, stay the same throughout the entire experiment.
In this experiment the influence of different inhibitors on the conversion E to F and F to E was determined. The reason why inhibition in both directions was examined was to make a comparison between the inhibitors and which type of 11 β-HSD they inhibit more. Thirty-two compounds were screened for their ability to inhibit 11 β-HSD type 1 (E to F) and type 2 (F to E). […] The percent of inhibition was calculated as the percentage of decrease in radio labelled ^3H-E and ^3H—F of product formed, compared with the control activity (the tubes without an inhibitor in it). All the results calculated are means, n=2.

For the next assay, the target named is T2, 11 β-HSD type 1 (Rattus norvegicus, UniProt P16232).
T2 construct: Both the kidneys and livers were homogenised on ice in PBS- sucrose buffer; tissue Harlan Olac, Bicester, Oxon, UK (rats); host or cells: rat liver homogenate supernatant (Wistar rat)
Description: biochemical. It is filed as biochemical. The note with it: rat liver cytosol 25 μL, 90 min, 37° C., cortisone (E) to cortisol (F), vs control without inhibitor, means n=2; for inhibition at 10 µM: read-out: % […]→F ± SD, inhibitor 10 μM, read-out: % INHIBITION E→F ± SD; for % INHIBITION E→F ± SD: inhibitor 10 μM.

T2 sequence (P16232 whole entry): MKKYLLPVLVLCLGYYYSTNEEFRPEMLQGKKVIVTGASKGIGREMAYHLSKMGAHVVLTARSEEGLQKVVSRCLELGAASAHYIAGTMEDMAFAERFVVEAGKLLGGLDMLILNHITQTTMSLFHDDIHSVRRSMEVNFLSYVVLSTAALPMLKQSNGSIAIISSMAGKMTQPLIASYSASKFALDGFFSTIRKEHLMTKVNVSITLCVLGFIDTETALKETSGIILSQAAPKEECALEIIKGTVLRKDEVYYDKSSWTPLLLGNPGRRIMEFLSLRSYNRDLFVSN

For `CCOC(=O)[C@@]1(C)CC[C@]2(C)CC[C@]3(C)C(=CC(=O)C4[C@@]5(C)CC[C@H](OCc6ccccc6)C(C)(C)C5CC[C@]43C)[C@@H]2C1` (stereo partly drawn) [STX 297], the inhibition at 10 µM worked out at 58.7 ± 10.4% on 11 β-HSD type 2 and 34.3 ± 8.26% at 11 β-HSD type 1.

`CC1(C)[C@@H](O)CC[C@]2(C)[C@H]3C(=O)C=C4[C@@H]5C[C@@](C)(C(=O)OCCc6ccccc6)CC[C@]5(C)CC[C@@]4(C)[C@]3(C)CC[C@@H]12` [STX197, 3β-hydroxy-11-oxo-18β-glycyrrhetinic acid phenylethyl ester]: at 11 β-HSD type 1, the “% INHIBITION E→F ± SD” value stood at 53.0 ± 0.935%. With `CC1(C)C2CC[C@]3(C)C(C(=O)C=C4[C@@H]5C[C@@](C)(CO)CC[C@]5(C)CC[C@]43C)[C@@]2(C)CC[C@@H]1O` (stereo partly drawn) [STX 349], the inhibition at 10 µM at 11 β-HSD type 2 came out at 100 ± 0.49%; at 11 β-HSD type 1, 89.7 ± 4.9%. The like results for `CC1(C)C2CC[C@]3(C)C(CC=C4[C@@H]5C[C@@](C)(C(=O)O)CC[C@]5(C)CC[C@]43C)[C@@]2(C)CC[C@@H]1O` (stereo partly drawn) [STX122, 11-Deoxo-18β-glycerrhetinic acid] were, in that order, 109 ± 1.64% and 92.7 ± 1.23%. As to `CC1(C)[C@@H](O)CC[C@]2(C)[C@H]3C(=O)C=C4[C@H]5C[C@@](C)(C(=O)O)CC[C@]5(C)CC[C@@]4(C)[C@]3(C)CC[C@@H]12` [STX353, 3β-Hydroxy-11-oxo-18α,20β-olean-12-en-29-oic acid, reference compound], the inhibition at 10 µM at 11 β-HSD type 1 came out at 89 ± 1.49%.

Consider `CCOC(=O)[C@H](C)NC(=O)[C@@]1(C)CC[C@]2(C)CC[C@]3(C)C(=CC(=O)[C@@H]4[C@@]5(C)CC[C@H](O)C(C)(C)C5CC[C@]43C)[C@@H]2C1` (stereo partly drawn) [STX 369, 18β-Glycyrrhetinic Acid L-alanine Ethyl Ester Amide], for which the inhibition at 10 µM was 35.4 ± 12.6% at 11 β-HSD type 2 and 24.9 ± 2.51% at 11 β-HSD type 1. Regarding `CC1(C)C(=O)CC[C@@]2(C)C1CC[C@]1(C)C2C(=O)C=C2[C@@H]3C[C@@](C)(C(=O)O)CC[C@]3(C)CC[C@]21C` (stereo partly drawn) [STX 347, 3-Oxo-18β-glycerrhetinic acid], the inhibition at 10 µM on 11 β-HSD type 1 turned out to be 89.37 ± 0.1%.

`COC(=O)[C@@]1(C)CC[C@]2(C)CC[C@]3(C)C(=CCC4[C@@]5(C)CC[C@H](O)C(C)(C)C5CC[C@]43C)[C@@H]2C1` (stereo partly drawn) [STX 299]: the results for the inhibition at 10 µM on 11 β-HSD type 2 and at 11 β-HSD type 1 were 19.5 ± 1.66% and 20.2 ± 1.89%, respectively. On to `C[C@H](CCC(=O)O)[C@H]1CC[C@H]2[C@@H]3CC[C@@H]4C[C@H](O)CC[C@]4(C)[C@H]3C[C@H](O)[C@]12C` [Deoxycholic acid, reference compound], for which the “stimulation of 11 β-HSD type 2 (F to E)” value on 11 β-HSD type 2 (inhibitor 10 μM, rat kidney, printed as stimulation, not inhibition) amounted to 1%. Also, the figures for the inhibition at 10 µM at 11 β-HSD type 2 and on 11 β-HSD type 1 were -1.1 ± 8.27% and 27.6 ± 7.85%, respectively. Consider `COC(=O)[C@@]1(C)CC[C@]2(C)CC[C@]3(C)C(=CC(=O)[C@@H]4[C@@]5(C)CC[C@H](OCc6ccccc6)C(C)(C)C5CC[C@]43C)[C@@H]2C1` (stereo partly drawn) [STX 359], for which the inhibition at 10 µM at 11 β-HSD type 2 amounted to 17 ± 3.5%; at 11 β-HSD type 1 it was 17.8 ± 2.5%. For `CC1(C)C2CC[C@]3(C)[C@H](C(=O)C=C4[C@@H]5C[C@@](C)(C(=O)NCCN6CCOCC6)CC[C@]5(C)CC[C@]43C)[C@@]2(C)CC[C@@H]1O` (stereo partly drawn) [STX 372, 18-Glycyrrhetinic Acid (2-morpholin-4-yl-ethyl)-amide] the same measures were 65.8 ± 20.9% and 19.4 ± 7.81%. The like results for `COC(=O)[C@@]1(C)CC[C@]2(C)CC[C@]3(C)C(=CC(=O)[C@@H]4[C@@]5(C)CC[C@H](OCc6ccc(C(C)(C)C)cc6)C(C)(C)C5CC[C@]43C)[C@@H]2C1` (stereo partly drawn) [STX 360] were, in that order, 26.4 ± 11.6% and 14.7 ± 2.4%. Turning to `CC1(C)C2CC[C@]3(C)[C@H](C(=O)C=C4[C@@H]5C[C@@](C)(C(=O)NCc6ccccc6)CC[C@]5(C)CC[C@]43C)[C@@]2(C)CC[C@@H]1O` (stereo partly drawn) [STX 366, 18β-Glycyrrhetinic Acid Benzylamide], the inhibition at 10 µM at 11 β-HSD type 1 came out at 85.2 ± 1.09%. As to `CC1(C)C2CC[C@]3(C)[C@H](C(=O)C=C4[C@@H]5C[C@@](C)(C(=O)NCc6ccccn6)CC[C@]5(C)CC[C@]43C)[C@@]2(C)CC[C@@H]1O` (stereo partly drawn) [STX 371, 18β-Glycyrrhetinic Acid (pyridin-2-ylmethyl)-amide], the results for the inhibition at 10 µM at 11 β-HSD type 2 and at 11 β-HSD type 1 were 93 ± 2.75% and 57.1 ± 5.6%, respectively. As to `CC(C)(C)OC(=O)[C@@]1(C)CC[C@]2(C)CC[C@]3(C)C(=CC(=O)C4[C@@]5(C)CC[C@H](O)C(C)(C)C5CC[C@]43C)[C@@H]2C1` (stereo partly drawn) [STX 298], the inhibition at 10 µM was 22.6 ± 12.9% on 11 β-HSD type 2 and 50.6 ± 4.43% at 11 β-HSD type 1. For `CC(=O)O[C@H]1CC[C@@]2(C)C(CC[C@]3(C)[C@@H]2C(=O)C=C2[C@@H]4C[C@@](C)(C(=O)NCc5ccccc5)CC[C@]4(C)CC[C@]23C)C1(C)C` (stereo partly drawn) [STX 367, 3β-Acetoxy-18β-Glycyrrhetinic Acid Benzylamide] the same measures were 27.3 ± 2.99% and 36.2 ± 3.69%. As to `CC1(C)C2CC[C@]3(C)C(CC=C4[C@@H]5C[C@@](C)(CO)CC[C@]5(C)CC[C@]43C)[C@@]2(C)CC[C@@H]1O` (stereo partly drawn) [STX 350], the values for the inhibition at 10 µM on 11 β-HSD type 2 and on 11 β-HSD type 1 were 60.3 ± 3.99% and 13.4 ± 9.63%, respectively. The like results for `CC(=O)C1CCC2C3CCC4=CC(=O)CC[C@]4(C)C3CC[C@]12C` (stereo partly drawn) [Progesterone, reference compound] were, in that order, 68.5 ± 0.707% and 73%.

Turning to `CC1(C)C2CC[C@]3(C)C(C(=O)C=C4[C@@H]5C[C@@](C)(C(=O)OCc6ccccc6)CC[C@]5(C)CC[C@]43C)[C@@]2(C)CC[C@@H]1O` (stereo partly drawn) [STX 348], the inhibition at 10 µM is 94.77 ± 0.17% at 11 β-HSD type 2 and 63.4 ± 1.45% at 11 β-HSD type 1. For the compound `CC1(C)C(=O)CC[C@]2(C)C3C(=O)C=C4[C@H]5C[C@@](C)(C(=O)O)CC[C@]5(C)CC[C@@]4(C)[C@]3(C)CC[C@@H]12` (stereo partly drawn) [BLE99005, 3,11-Dioxo-18α-olean-12-en-30-oic acid], the “% INHIBITION E→F ± SD” value at 11 β-HSD type 1 (10 µM) stood at 86.9 ± 0.882%. Further, on 11 β-HSD type 1, the inhibition at 10 µM stood at 87%. For the compound `CC1(C)[C@@H](O)CC[C@]2(C)[C@H]3C(=O)C=C4[C@@H]5C[C@@](C)(C(=O)O)CC[C@]5(C)CC[C@@]4(C)[C@]3(C)CC[C@@H]12` [STX352, 3β-Hydroxy-11-oxo-18β,20β-olean-12-en-29-oic acid, reference compound], the inhibition at 10 µM at 11 β-HSD type 1 was determined as 85.2 ± 3.69%. On the same count and under the same terms, with `CC(=O)C1CCC2C3CCC4=CC(=O)CC[C@]4(C)C3[C@H](O)C[C@]12C` (stereo partly drawn) [DG322B, 11-hydroxy-Progesterone] the figure was 32.6 ± 3.75%.

These data come from US20040147494A1, “Use” (priority 2001, published 2004).
